How the values were obtained:
Format in all cases: physicochemical
[1] = Maximum solubility of the dyes in methyl benzoate and spectral data of the saturated solutions; conditions: for Solubility (maximum solubility): in methyl benzoate; for E11 = Extinction (absorbance) of 1 g of this solution in 100 ml of N-methyl-pyrrolidone, 1 cm cell: saturated solution of the dye alone in methyl benzoate
Description: The maximum solubility of the dyes was determined in methyl benzoate.

[2] = Mass colouring of polystyrene granules, injection moulding at 240° C., fastness; conditions: 0.02 g dye per 100 g polystyrene, transparent sheets
Description: a) 100 g of polystyrene granules and 0.02 g of the dye from Example 4 are mixed intensely in a drum mixer for 15 min. The dry-stained granules are processed on a screw injection moulding machine at 240° C. This gives transparent bluish red sheets of very good light fastness and migration fastness.

[3] = Mass colouring of transparent polyethylene terephthalate, twin-screw extruder at 280° C., fastness; conditions: 0.025 g dye per 100 g transparent polyethylene terephthalate
Description: b) 0.025 g of the dye from Example 4 are mixed with 100 g of a transparent polyethylene terephthalate grade and the mixture is homogenized in a twin-screw extruder at 280° C. This gives a transparent bluish red coloration with good light fastness and migration fastness. After subsequent granulation the coloured plastic can be processed in accordance with the typical methods of thermoplastic shaping.

[4] = Mass colouring of polycarbonate, twin-screw extruder at 290° C., fastness; conditions: 0.03 g dye per 100 g polycarbonate
Description: c) 100 g of a commercially customary polycarbonate are dry-mixed in granule form with 0.03 g of the dye from Example 4. The granules dusted in this way are homogenized in a twin-screw extruder at 290° C. This gives a transparent bluish red coloration with good light fastness and migration fastness. The coloured polycarbonate is extruded as a strand from the extruder and processed to granules. The granules can be processed by the typical methods of processing thermoplastic compounds.

SMILES | Solubility (maximum solubility) [1] [g/100 ml] | E11 = Extinction (absorbance) of 1 g of this solution in 100 ml of N-methyl-pyrrolidone, 1 cm cell [1] | light fastness [2] | migration fastness [2] | light fastness [3] | migration fastness [3] | light fastness [4] | migration fastness [4]
Nc1c(Oc2ccc(C3(c4ccc(Oc5cc(O)c6c(c5N)C(=O)c5ccccc5C6=O)cc4)CCCCC3)cc2)cc(O)c2c1C(=O)c1ccccc1C2=O [Dye (15)] | 0.57 | 1.8 |  |  |  |  |  | 
Nc1c(OCCOc2ccc(OCCOc3cc(O)c4c(c3N)C(=O)c3ccccc3C4=O)cc2)cc(O)c2c1C(=O)c1ccccc1C2=O [Example 4] |  |  | very good | very good | good | good | good | good
O=C1c2c(Cl)c(Cl)c(Cl)c(Cl)c2C2=Nc3cccc4cccc(c34)N12 [Dye (7), reference compound] | 0.107 | 0.17 |  |  |  |  |  | 

Source: patent publication US20090076199A1, “RED DYE MIXTURE” (LANXESS DEUTSCHLAND GMBH, priority 2007, published 2009)
